From the NIST ThermoML archive (doi:10.1016/j.jct.2014.06.021)
± gives the expanded uncertainty stated by the source.

Legend:
[1] = Crystal; DTA
[2] = Molar enthalpy of transition or fusion; details: Crystal; DSC

For `O=P(Oc1ccccc1)(Oc1ccccc1)N1CCN(P(=O)(Oc2ccccc2)Oc2ccccc2)CC1` [tetraphenyl piperazine-1,4-diylbis(phosphonate)], which Normal melting temperature [1] is on record?
The Normal melting temperature was 184.67 ± 0.53 °C.

What about the “Molar enthalpy of transition or fusion” value [2] of the same compound?
The value was 60 ± 1.5 kJ/mol.
